Experimental data as given in paper PMC10486429, “Investigations Using Albumin Binders to Modify the Tissue Distribution Profile of Radiopharmaceuticals Exemplified with Folate Radioconjugates” (Cancers, 2023).

Experiments:
[1] = biological target: T1, folate receptor (FR) (Homo sapiens, UniProt P15328); assay: FR-binding affinity (KD) of 177Lu-RedFols on IGROV-1 cells; conditions: 1 h at 4 °C, read-out: KD Value (95% CI)
T1 construct: endogenous in cells; host or cells: IGROV-1 (human ovarian carcinoma cell line), intact cells on ice
T1 sequence (P15328 25-257): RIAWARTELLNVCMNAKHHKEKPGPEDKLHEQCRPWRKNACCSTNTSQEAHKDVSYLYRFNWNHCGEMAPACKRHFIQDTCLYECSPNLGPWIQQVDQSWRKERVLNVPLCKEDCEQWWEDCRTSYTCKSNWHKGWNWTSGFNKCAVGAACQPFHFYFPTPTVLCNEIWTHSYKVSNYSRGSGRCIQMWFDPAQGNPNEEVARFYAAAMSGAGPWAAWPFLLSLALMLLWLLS
Description: (100 µM) to block FRs on the cell surface. The IGROV-1 tumor cells were incubated for 1 h at 4 °C on a shaker, followed by removal of the supernatants and rinsing of the cells twice with PBS. After lysis of the cells with NaOH solution (1 M, 500 µL), the samples were counted for activity using a γ-counter (Wallac Wizard 1480, Perkin Elmer, Waltham, MA, USA). The cpm of the specific binding (determined by subtracting the cpm of the non-specific binding from the cpm of total binding), were plotted against the molar con-centration of the added folate radioconjugates. Non-linear regression analysis was per-formed using GraphPad Prism software (version 8) to obtain KD values from one curve of 3−5 independent experiments, each performed in triplicates.
Results: The results are reported in the main article. […]

[2] = biological target: human serum albumin (HSA) in human plasma (Homo sapiens, UniProt P02768); assay: Ultrafiltration albumin-binding assay of 177Lu-RedFols, human plasma; conditions: for Relative albumin-binding affinity: human blood plasma, inverse B50 ratio, normalized to the respective (6R or 6S) RedFol-1, set as 1.0; for Albumin-bound fraction: undiluted human blood plasma
Sequence of human serum albumin (HSA) in human plasma (P02768 25-609): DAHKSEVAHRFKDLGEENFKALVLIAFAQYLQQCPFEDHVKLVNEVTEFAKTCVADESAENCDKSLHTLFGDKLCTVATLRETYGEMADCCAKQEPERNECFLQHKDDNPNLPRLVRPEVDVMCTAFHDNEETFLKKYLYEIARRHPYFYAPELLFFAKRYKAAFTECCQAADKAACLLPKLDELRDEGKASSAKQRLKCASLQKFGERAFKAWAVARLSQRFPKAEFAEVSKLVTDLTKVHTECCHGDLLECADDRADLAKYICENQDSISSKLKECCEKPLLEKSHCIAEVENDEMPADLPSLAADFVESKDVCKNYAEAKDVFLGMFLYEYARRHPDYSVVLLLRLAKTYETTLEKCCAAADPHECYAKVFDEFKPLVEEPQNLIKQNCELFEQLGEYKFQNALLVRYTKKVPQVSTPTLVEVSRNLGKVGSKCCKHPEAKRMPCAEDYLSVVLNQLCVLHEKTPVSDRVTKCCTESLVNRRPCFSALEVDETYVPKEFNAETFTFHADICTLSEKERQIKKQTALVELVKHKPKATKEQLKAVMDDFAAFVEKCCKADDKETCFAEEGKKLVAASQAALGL
Description: An ultrafiltration method was applied according to a previously published procedure (Supplementary Materials Section S11) that was different from the one reported for the ^177Lu-DOTA-ALBs to prevent non-specific binding to the filter units. Briefly, the albumin-bound fraction was determined at different molar concentration ratios of serum albumin relative to the ^177Lu-labeled RedFols using a blood plasma/PBS dilution series and constant amounts of the respective ^177Lu-labeled folate conjugate (0.3 MBq; 0.006 nmol). The albumin-bound fraction was separated from the free (albumin-unbound) fraction of each sample using Amicon centrifugal filters (cut-off of 10 kDa; Merck Millipore, Carrigtwohill, Ireland). The inserts of the filter devices were inverted and centrifuged to recover the albumin-bound fraction, whereas filter-bound activity was considered as free (albumin-unbound) folate radioconjugate. The activity of the different fractions was measured using a γ-counter (Perkin Elmer, Wallac Wizard 1480, Waltham, MA, USA), and the proportion of albumin-bound radioconjugate was set in relation to the total activity measured. The data were analyzed in analogy to those of ^177Lu-DOTA-ALBs (Section 2.1.3). The relative albumin-binding affinity was assessed by calculating the inverse ratio of the B50 value of each 6R-5-MTHF-based folate radioconjugate to the B50 value of [^177Lu]Lu-6R-RedFol-1 (set as 1.0) and of each 6S-5-MTHF-based folate radioconjugate to the B50 value of [^177Lu]Lu-6S-RedFol-1 (set as 1.0). The results were presented as average ± SD of n = 3 independent experiments. […]
S11. Relative Albumin-Binding Properties of 177Lu-RedFols
Purpose: The affinity of the folate radioconjugates to serum albumin in mouse and human blood plasma was determined and compared.
Methods: The albumin-binding affinity of the 177Lu-RedFols was assessed using mouse plasma (Rockland Immunochemicals, Inc., Pottstown, PA, USA, Lot N: 32321; MSA: ⁓550 µM) and human plasma (Stiftung Blutspende SRK Aargau-Solothurn, Aarau, Switzerland; HSA: ⁓800 µM), respectively. An ultrafiltration method was applied accord-ing to a previously published procedure that was different from the one reported for the 177Lu-DOTA-ALBs to avoid non-specific binding to the filter units.
The folate radioconjugates (50 MBq/nmol, ~300 kBq, 6 pmol in 15 µL) were added to samples of mouse and human blood plasma (150 µL), followed by incubation of the sam-ples at 37 °C for 30 min. The samples were loaded on Amicon centrifugal filters (cut-off of 10 kDa; Merck Millipore, Carrigtwohill, Ireland) followed by centrifugation (14000 rcf, 30 min, 4 °C) to allow the separation of the serum albumin-bound from the free (albumin-unbound) fractions of each sample. The inserts of the filter devices were inverted and centrifuged at 200 rcf for 3 min to recover the albumin-bound fraction. The activity of the albumin-bound fraction as well as the activity in the filtrate and in the filter unit were measured separately in a γ-counter (Perkin Elmer, Wallac Wizard 1480, Waltham, MA, USA). The percentage of radioconjugate bound to mouse and human albumin, respec-

SMILES | Kd [1] [nM] | Relative albumin-binding affinity [2] | Albumin-bound fraction [2] [%]
CN1c2c(nc(N)[nH]c2=O)NC[C@H]1CNc1ccc(C(=O)N[C@@H](CCC(=O)N[C@@H](CCCCNC(=O)CN2CCN(CC(=O)O)CCN(CC(=O)O)CCN(CC(=O)O)CC2)C(=O)N[C@@H](CCCCNC(=O)c2ccc(CNC(=O)CCCc3ccc(I)cc3)cc2)C(=O)O)C(=O)O)cc1 [[^177Lu]Lu-6R-RedFol-3, metal not drawn] | 4.7 | 1.1 | 97
CN1c2c(nc(N)[nH]c2=O)NCC1CNc1ccc(C(=O)NC(CCC(=O)NC(CCCCNC(=O)CN2CCN(CC(=O)[O-])CCN(CC(=O)[O-])CCN(CC(=O)[O-])CC2)C(=O)NC(CCCCNC(=O)c2ccc(CNC(=O)CCCCc3ccc(I)cc3)cc2)C(=O)O)C(=O)O)cc1.[177Lu+3] (stereo not drawn) [[^177Lu]Lu-6S-RedFol-25] | 2.2 | 0.2 | 91
CN1c2c(nc(N)[nH]c2=O)NCC1CNc1ccc(C(=O)NC(CCC(=O)NC(CCCCNC(=O)CN2CCN(CC(=O)[O-])CCN(CC(=O)[O-])CCN(CC(=O)[O-])CC2)C(=O)NC(CCCCNC(=O)c2ccc(CNC(=O)CCCc3ccc(I)cc3)cc2)C(=O)O)C(=O)O)cc1.[177Lu+3] (stereo not drawn) [[^177Lu]Lu-6S-RedFol-3] | 2.8 | 1.1 | 97
CN1c2c(nc(N)[nH]c2=O)NC[C@H]1CNc1ccc(C(=O)N[C@@H](CCC(=O)N[C@@H](CCCCNC(=O)CN2CCN(CC(=O)O)CCN(CC(=O)O)CCN(CC(=O)O)CC2)C(=O)N[C@@H](CCCCNC(=O)CCCCc2ccc(I)cc2)C(=O)O)C(=O)O)cc1 [[^177Lu]Lu-6R-RedFol-24, metal not drawn] | 4.7 | 0.5 | 94
CN1c2c(nc(N)[nH]c2=O)NCC1CNc1ccc(C(=O)NC(CCC(=O)NC(CCCCNC(=O)CN2CCN(CC(=O)[O-])CCN(CC(=O)[O-])CCN(CC(=O)[O-])CC2)C(=O)NC(CCCCNC(=O)CCCc2ccc(I)cc2)C(=O)O)C(=O)O)cc1.[177Lu+3] (stereo not drawn) [[^177Lu]Lu-6S-RedFol-1] |  | 1.0 | 98
CN1c2c(nc(N)[nH]c2=O)NC[C@H]1CNc1ccc(C(=O)N[C@@H](CCC(=O)N[C@@H](CCCCNC(=O)CN2CCN(CC(=O)O)CCN(CC(=O)O)CCN(CC(=O)O)CC2)C(=O)N[C@@H](CCCCNC(=O)CCCc2ccc(I)cc2)C(=O)O)C(=O)O)cc1 [[^177Lu]Lu-6R-RedFol-1, metal not drawn] |  | 1.0 | 98
CN1c2c(nc(N)[nH]c2=O)NC[C@H]1CNc1ccc(C(=O)N[C@@H](CCC(=O)N[C@@H](CCCCNC(=O)CN2CCN(CC(=O)O)CCN(CC(=O)O)CCN(CC(=O)O)CC2)C(=O)N[C@@H](CCCCNC(=O)c2ccc(CNC(=O)CCCCc3ccc(I)cc3)cc2)C(=O)O)C(=O)O)cc1 [[^177Lu]Lu-6R-RedFol-25, metal not drawn] | 3.6 | 0.5 | 96
